{"source": "paper PMC5814585", "about": "“Modulators of actin-myosin dissociation: basis for muscle type functional differences during fatigue” (American Journal of Physiology - Cell Physiology, 2017)", "key": {"actin.MassS1 [1]": {"molecular_target": "T1, actin.MassS1 (Bos taurus, UniProt Q9BE39)", "T1 construct": "from tissue; host or cells: bovine masseter muscle (myosin); rabbit muscle (actin)", "assay": "ADP dissociation constant in the presence of phosphate (KADP+Pi) and calculated KPi app, masseter", "assay_type": "binding, bovine", "conditions": "15 mM Pi"}, "actin.PsoS1 [2]": {"tested_on": "actin.PsoS1", "assay": "ADP dissociation constant (KADP) by competitive inhibition of ATP-induced dissociation, psoas", "assay_type": "binding, rabbit", "conditions": "for kobs of ATP-induced dissociation with ADP present: 25 µM ATP, 20°C", "protocol": "In a similar process, ADP dissociation constant (KADP), which defines ADP affinity for actin.S1, was measured by adding to the mixture ADP as a competitive inhibitor of ATP binding. […] This approach assumes that ADP is in rapid equilibrium with the actin.S1 complex on the time scale of the ATP-induced dissociation reaction. This was ensured by using the low (25 µM) concentration of ATP. That this assumption holds was tested by repeating the measurement with ADP preincubated with actin.S1 and then mixing with ATP. The observed rate constants were identical in each case.\n(§1) (4)) kobs=K1k+2[ATP]/[1+([I]/KI)]"}, "actin.MassS1 [3]": {"molecular_target": "T1, actin.MassS1", "assay": "ADP release rate constant (k-AD), ADP displacement by excess ATP", "assay_type": "biochemical, bovine", "parameters": "effect of Pi on kobs of ADP release / increase in kobs of ADP release in the presence of phosphate / activation energy (Ea) of k−AD (ADP release): dose or concentration left out as unconfirmed", "conditions": "for kobs of ADP release (fast phase): 75 µM ADP displaced by 8 mM ATP; for activation energy (Ea) of k−AD (ADP release): Mass", "protocol": "Two types of myosins were studied which are known to differ in their dissociation constant for nucleotides ([5], [51]). The rate constant for the release of ADP (k−ADP) is relatively slow for masseter S1 and can easily be measured in an ADP displacement experiment. This step is very fast for a fast muscle isoform and too fast to measure by current equipment. Briefly, actin.^MassS1 saturated with 75 µM of ADP (A.M.D complex) was mixed with a large excess of ATP (8 mM) in the stopped flow. Then the kobs values, fitted to a single exponential equation (Eqn 1) defined the rate constant by which ADP is released by the ternary A.M.D complex (k−AD).\nThe temperature dependence of the above studied biochemical steps K1k+2, KADP, KPi, and KADP+Pi data were plotted as the natural logarithm of the measured parameter against the reciprocal of temperature in degrees Kelvin (1/T °K) and fitted with linear regression using the Arrhenius (rate constants) or Van’t Hoff (equilibrium constants) equations(7)) lnK1k+2=ln(A)−Ea/RT (8)) lnKeq=ΔS°/R−ΔH°/RT where Ea stands for activation energy, R is the gas constant, and A is a preexponential factor. The values of –Ea/R or or ΔH°/R were derived from the slopes."}, "actin.PsoS1 [4]": {"molecular_target": "actin.PsoS1", "assay": "ADP dissociation constant in the presence of phosphate (KADP+Pi) and calculated KPi app, psoas", "assay_type": "binding, rabbit", "conditions": "30 mM Pi"}, "actin.MassS1 [5]": {"molecular_target": "T1, actin.MassS1", "assay": "ADP dissociation constant (KADP) by competitive inhibition of ATP-induced dissociation, masseter", "assay_type": "binding, bovine", "conditions": "for kobs of ATP-induced dissociation with ADP present: 25 µM ATP, 20°C, pH 7.0", "protocol": "In a similar process, ADP dissociation constant (KADP), which defines ADP affinity for actin.S1, was measured by adding to the mixture ADP as a competitive inhibitor of ATP binding. In this case it is convenient to add the ADP to the ATP solution, i.e., 0.5 µM pyr.actin.S1 was mixed with 25 µM ATP with various concentrations of ADP present with the ATP (from 0 to 1200 µM). This approach assumes that ADP is in rapid equilibrium with the actin.S1 complex on the time scale of the ATP-induced dissociation reaction. This was ensured by using the low (25 µM) concentration of ATP. That this assumption holds was tested by repeating the measurement with ADP preincubated with actin.S1 and then mixing with ATP. The observed rate constants were identical in each case.\nas §1"}, "actin.MassS1 [6]": {"molecular_target": "T1, actin.MassS1", "parameters": "method as in Bloemink et al. (4)", "conditions": "ref Bloemink et al. (4); cited from earlier work"}}, "note": "Several values for one entry are separate records, joined by “and”; a condition that tells them apart may be missing. Equal entries are not always repeated.", "data": [{"compound": "Nc1ncnc2c1ncn2[C@@H]1O[C@H](COP(=O)(O)OP(=O)(O)O)[C@@H](O)[C@H]1O", "note": "[ADP]", "values": [{"measurement": "Kd", "setting": "actin.MassS1 [1]; Masseter S1, pH 6.2, 10°C", "result": "52.2 ± 4.2", "unit": "µM"}, {"measurement": "Kd", "setting": "actin.MassS1 [1]; Masseter S1, pH 6.2, 20°C", "result": "82.6 ± 5.7", "unit": "µM"}, {"measurement": "Kd", "setting": "actin.MassS1 [1]; Masseter S1, pH 6.2, 30°C", "result": 175, "unit": "µM"}, {"measurement": "Kd", "setting": "actin.MassS1 [1]; Masseter S1, pH 7.0, 10°C", "result": "22.5 ± 2.9", "unit": "µM"}, {"measurement": "Kd", "setting": "actin.MassS1 [1]; Masseter S1, pH 7.0, 20°C", "result": "44.4 ± 4.6", "unit": "µM"}, {"measurement": "Kd", "setting": "actin.MassS1 [1]; Masseter S1, pH 7.0, 30°C", "result": "79.3 ± 6.5", "unit": "µM"}, {"measurement": "kobs of ATP-induced dissociation with ADP present", "setting": "actin.PsoS1 [2]; 0.25 mM ADP, pH 7.0", "result": 45.9, "unit": "s⁻¹"}, {"measurement": "kobs of ATP-induced dissociation with ADP present", "setting": "actin.PsoS1 [2]; 1 mM ADP, pH 7.0", "result": 21.4, "unit": "s⁻¹"}, {"measurement": "kobs of ATP-induced dissociation with ADP present", "setting": "actin.PsoS1 [2]; 4 mM ADP, pH 7.0", "result": 14.5, "unit": "s⁻¹"}, {"measurement": "Kd", "setting": "actin.PsoS1 [2]; Psoas S1, pH 6.2, 10°C, read-out: KADP", "result": "256 ± 32", "unit": "µM"}, {"measurement": "Kd", "setting": "actin.PsoS1 [2]; Psoas S1, pH 6.2, 20°C, read-out: KADP", "result": "228 ± 36", "unit": "µM"}, {"measurement": "Kd", "setting": "actin.PsoS1 [2]; Psoas S1, pH 6.2, 30°C, read-out: KADP", "result": "236 ± 29", "unit": "µM"}, {"measurement": "Kd", "setting": "actin.PsoS1 [2]; Psoas S1, pH 7.0, 10°C, read-out: KADP", "result": "201 ± 34", "unit": "µM"}, {"measurement": "Kd", "setting": "actin.PsoS1 [2]; Psoas S1, pH 7.0, 20°C, read-out: KADP", "result": "203 ± 13", "unit": "µM"}, {"measurement": "Kd", "setting": "actin.PsoS1 [2]; Psoas S1, pH 7.0, 30°C, read-out: KADP", "result": "232 ± 29", "unit": "µM"}, {"measurement": "Kd", "setting": "actin.PsoS1 [2]; psoas actin.S1, between 10 and 30°C, pH 7.0, read-out: ADP affinity (KADP)", "result": "~200", "unit": "µM"}, {"measurement": "kobs of ADP release (fast phase)", "setting": "actin.MassS1 [3]; pH 7.0, 5°C", "result": 16.2, "unit": "s⁻¹"}, {"measurement": "kobs of ADP release (fast phase)", "setting": "actin.MassS1 [3]; pH 7.0, 10°C", "result": 26.0, "unit": "s⁻¹"}, {"measurement": "kobs of ADP release (fast phase)", "setting": "actin.MassS1 [3]; pH 7.0, 20°C", "result": "85 s⁻¹ and 85.0 s⁻¹"}, {"measurement": "kobs of ADP release (fast phase)", "setting": "actin.MassS1 [3]; pH 7.0, 30°C", "result": 273, "unit": "s⁻¹"}, {"measurement": "kobs of ADP release (fast phase)", "setting": "actin.MassS1 [3]; pH 7.0, […]°C", "result": 46.3, "unit": "s⁻¹"}, {"measurement": "activation energy (Ea) of k−AD (ADP release)", "setting": "actin.MassS1 [3]; pH 6.2, + […] mM Pi", "result": "21.2 ± 0.932", "unit": "kcal/mol"}, {"measurement": "activation energy (Ea) of k−AD (ADP release)", "setting": "actin.MassS1 [3]; pH 6.2, no Pi", "result": "20.2 ± 1.46", "unit": "kcal/mol"}, {"measurement": "activation energy (Ea) of k−AD (ADP release)", "setting": "actin.MassS1 [3]; pH 7.0, + […] mM Pi", "result": "22.6 ± 1.2", "unit": "kcal/mol"}, {"measurement": "activation energy (Ea) of k−AD (ADP release)", "setting": "actin.MassS1 [3]; pH 7.0, no Pi", "result": "18.1 ± 0.98", "unit": "kcal/mol"}, {"measurement": "Kd", "setting": "actin.PsoS1 [4]; Psoas S1, pH 6.2, 10°C, read-out: KADP+Pi", "result": "665 ± 39", "unit": "µM"}, {"measurement": "Kd", "setting": "actin.PsoS1 [4]; Psoas S1, pH 6.2, 20°C, read-out: KADP+Pi", "result": 514, "unit": "µM"}, {"measurement": "Kd", "setting": "actin.PsoS1 [4]; Psoas S1, pH 6.2, 30°C, read-out: KADP+Pi", "result": "926 ± 73", "unit": "µM"}, {"measurement": "Kd", "setting": "actin.PsoS1 [4]; Psoas S1, pH 7.0, 10°C, read-out: KADP+Pi", "result": "770 ± 37", "unit": "µM"}, {"measurement": "Kd", "setting": "actin.PsoS1 [4]; Psoas S1, pH 7.0, 20°C, read-out: KADP+Pi", "result": "919 ± 72", "unit": "µM"}, {"measurement": "Kd", "setting": "actin.PsoS1 [4]; Psoas S1, pH 7.0, 30°C, read-out: KADP+Pi", "result": "942 µM and 1020 µM"}, {"measurement": "Kd", "setting": "actin.PsoS1 [4]; psoas, 10–20°C, pH 7.0, read-out: apparent KADP in the presence of Pi", "result": "~500", "unit": "µM"}, {"measurement": "kobs of ATP-induced dissociation with ADP present", "setting": "actin.MassS1 [5]; 25 µM ADP", "result": 21.7, "unit": "s⁻¹"}, {"measurement": "kobs of ATP-induced dissociation with ADP present", "setting": "actin.MassS1 [5]; 100 µM ADP", "result": 9.1, "unit": "s⁻¹"}, {"measurement": "kobs of ATP-induced dissociation with ADP present", "setting": "actin.MassS1 [5]; 500 µM ADP", "result": 2.6, "unit": "s⁻¹"}, {"measurement": "weakening of KADP at pH 6.2 vs pH 7.0", "setting": "actin.MassS1 [5]; MassS1, 30°C", "result": 1.5, "unit": "fold"}, {"measurement": "Kd", "setting": "actin.MassS1 [5]; Masseter S1, pH 6.2, 10°C", "result": "22 µM and 21.8 µM"}, {"measurement": "Kd", "setting": "actin.MassS1 [5]; Masseter S1, pH 6.2, 20°C", "result": "48.4 µM and 47 µM and 46.8 µM"}, {"measurement": "Kd", "setting": "actin.MassS1 [5]; Masseter S1, pH 6.2, 30°C", "result": "83.9 ± 4.7", "unit": "µM"}, {"measurement": "Kd", "setting": "actin.MassS1 [5]; Masseter S1, pH 7.0, 10°C", "result": "9.6 µM and 10 µM and 10.3 µM"}, {"measurement": "Kd", "setting": "actin.MassS1 [5]; Masseter S1, pH 7.0, 20°C", "result": "31 µM and 31.3 µM and 29.7 µM"}, {"measurement": "Kd", "setting": "actin.MassS1 [5]; Masseter S1, pH 7.0, 30°C", "result": "56.2 ± 6.5", "unit": "µM"}, {"measurement": "kobs of ADP release, published result", "setting": "actin.MassS1 [6]", "result": 94, "unit": "s⁻¹"}]}]}
